Biological target: T1, Recombinant human cathepsin A (Homo sapiens, UniProt P10619)
T1 construct: Recombinant human cathepsin A (residues 29-480, with a C-terminal 10-His tag); 10-His (C); purchased R&D Systems 1049-SE
T1 sequence (P10619 29-326 limits assumed): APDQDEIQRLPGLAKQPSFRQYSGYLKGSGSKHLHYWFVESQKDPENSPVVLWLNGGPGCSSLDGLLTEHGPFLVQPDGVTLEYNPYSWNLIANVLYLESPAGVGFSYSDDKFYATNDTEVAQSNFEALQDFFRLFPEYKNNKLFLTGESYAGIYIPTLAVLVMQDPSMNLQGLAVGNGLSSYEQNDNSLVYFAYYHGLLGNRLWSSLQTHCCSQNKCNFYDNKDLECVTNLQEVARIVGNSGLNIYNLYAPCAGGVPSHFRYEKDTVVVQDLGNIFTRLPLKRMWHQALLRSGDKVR
T1 sequence (P10619 327-480 limits assumed): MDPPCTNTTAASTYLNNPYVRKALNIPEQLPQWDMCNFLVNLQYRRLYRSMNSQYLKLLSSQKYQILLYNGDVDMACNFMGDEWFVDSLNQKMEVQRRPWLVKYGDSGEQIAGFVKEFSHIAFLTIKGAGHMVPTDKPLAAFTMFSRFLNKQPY
Assay: Cathepsin A inhibitory activity
Format: biochemical
Conditions: activated recombinant human cathepsin A 833 ng/ml, Bodipy FL-labeled bradykinin 2 μM, pH 5.5, 15 min room temperature
Description: a) Cathepsin a Inhibitory Activity
Briefly, cathepsin A was incubated at 10 μg/ml with cathepsin L at 1 μg/ml in activation buffer (25 mM 2-(morpholin-4-yl)-ethanesulfonic acid (MES), pH 6.0, containing 5 mM dithiothreitol (DTT)) for 15 min at 37° C.
The activated cathepsin A was diluted in assay buffer (25 mM MES, pH 5.5, containing 5 mM DTT) and mixed with the test compound (dissolved in assay buffer containing (v/v) 3% DMSO) or, in the control experiments, with the vehicle in a multiple assay plate. After incubation for 15 min at room temperature, as substrate then bradykinin carrying an N-terminal ®Bodipy FL (4,4-difluoro-5,7-dimethyl-4-bora-3a,4a-diaza-s-indacene-3-propionyl) label (JPT Peptide Technologies GmbH; dissolved in assay buffer) was added to the mixture. […] After incubation for 15 min at room temperature the reaction was stopped by the addition of stop buffer (130 mM 2-(4-(2-hydroxy-ethyl)-piperazin-1-yl)-ethanesulfonic acid, pH 7.4, containing (v/v) 0.013%® Triton X-100, 0.13% Coating Reagent 3 (Caliper Life Sciences), 6.5% DMSO and 20 μM ebelactone B (Sigma, # E0886)).
Uncleaved substrate and product were then separated by a microfluidic capillary electrophoresis on a LabChip® 3000 Drug Discovery System (12-Sipper-Chip; Caliper Life Sciences) and quantified by determination of the respective peak areas. Substrate turnover was calculated by dividing product peak area by the sum of substrate and product peak areas, and the enzyme activity and the inhibitory effect of the test compound thus quantified.

Q: With `Cc1ccc([C@H](CC(=O)O)NC(=O)c2nc(C3CC3)n(-c3ccccc3Cl)n2)cc1` [Example 83, (S)-3-{[1-(2-Chloro-phenyl)-5-cyclopropyl-1H-[1,2,4]triazole-3-carbonyl]-amino}-3-p-tolyl-propionic acid] as the compound, how does the IC50 read?
A: > 10 µM

Q: For `O=C(O)C[C@H](NC(=O)CCc1nc(-c2ccccc2F)no1)c1cccc(Cl)c1` [Example 74, (S)-3-(3-Chloro-phenyl)-3-{3-[3-(2-fluoro-phenyl)-[1,2,4]oxadiazol-5-yl]-propionylamino}-propionic acid], which IC50 is on record?
A: 0.61 µM

Q: How did the IC50 turn out when `C[C@@](CC(=O)O)(NC(=O)c1noc(-c2ccccc2F)n1)c1ccccc1` [Example 14, (S)-3-{[5-(2-Fluoro-phenyl)-[1,2,4]oxadiazole-3-carbonyl]-amino}-3-phenyl-butyric acid] was run?
A: 17.4 µM

Q: How did the IC50 turn out when `COc1ccc([C@H](CC(=O)O)NC(=O)c2nc(-c3ccccc3)oc2C)cc1` [Example 23, (S)-3-(4-Methoxy-phenyl)-3-[(5-methyl-2-phenyl-oxazole-4-carbonyl)-amino]-propionic acid] was run?
A: 2.39 µM

Q: For `CC(C)c1oc(-c2ccccc2)nc1C(=O)N[C@@H](CC(=O)O)c1ccc(Cl)cc1Cl` [Example 105, (S)-3-(2,4-Dichloro-phenyl)-3-[(5-isopropyl-2-phenyl-oxazole-4-carbonyl)-amino]-propionic acid], which IC50 is on record?
A: 9.21 µM

Q: `Cc1ccccc1[C@H](CC(=O)O)NC(=O)c1nn(C(C)C)c2ccccc12` [Example 6, (S)-3-[(1-Isopropyl-1H-indazole-3-carbonyl)-amino]-3-o-tolyl-propionic acid] was tested. Which IC50 did it give?
A: 0.351 µM

Q: `Cc1ccc([C@H](CC(=O)O)NC(=O)c2noc(-c3cccc(F)c3F)n2)cc1` [Example 38, (S)-3-{[5-(2,3-Difluoro-phenyl)-[1,2,4]oxadiazole-3-carbonyl]-amino}-3-p-tolyl-propionic acid] was tested. Which IC50 did it give?
A: 6 µM

Q: With `Cn1cc(NS(=O)(=O)CC2CCCCC2)c(C(=O)N[C@@H](CC(=O)O)c2ccccc2)n1` [Example 109, (S)-3-[(4-Cyclohexylmethanesulfonylamino-1-methyl-1H-pyrazole-3-carbonyl)-amino]-3-phenyl-propionic acid] as the compound, how does the IC50 read?
A: > 10 µM

Q: `CC(C)c1oc(-c2ccccc2)nc1C(=O)N[C@@H](CC(=O)O)c1cccc(Cl)c1Cl` [Example 103, (S)-3-(2,3-Dichloro-phenyl)-3-[(5-isopropyl-2-phenyl-oxazole-4-carbonyl)-amino]-propionic acid] was tested. Which IC50 did it give?
A: 0.598 µM

Q: Which IC50 does the source give for `Cc1ccccc1[C@H](CC(=O)O)NC(=O)c1cc(-c2ccccc2)n(Cc2ccc(F)cc2)n1` [Example 118, (S)-3-{[1-(4-Fluoro-benzyl)-5-phenyl-1H-pyrazole-3-carbonyl]-amino}-3-o-tolyl-propionic acid] here?
A: 1.54 µM

Q: For `O=C(O)C[C@H](NC(=O)c1nc(-c2ccccc2)n(-c2ccccc2)n1)c1ccc(F)cc1` [Example 91, (S)-3-[(1,5-Diphenyl-1H-[1,2,4]triazole-3-carbonyl)-amino]-3-(4-fluoro-phenyl)-propionic acid], which IC50 is on record?
A: 0.517 µM

Q: With `Cc1oc(-c2ccccc2)nc1C(=O)N[C@@H](CC(=O)O)c1cccc(Cl)c1Cl` [Example 76, (S)-3-(2,3-Dichloro-phenyl)-3-[(5-methyl-2-phenyl-oxazole-4-carbonyl)-amino]-propionic acid] as the compound, how does the IC50 read?
A: 0.59 µM

Q: Which IC50 does the source give for `Cc1ccccc1[C@H](CC(=O)O)NC(=O)c1noc(-c2cccc(F)c2F)n1` [Example 42, (S)-3-{[5-(2,3-Difluoro-phenyl)-[1,2,4]oxadiazole-3-carbonyl]-amino}-3-o-tolyl-propionic acid] here?
A: > 10 µM

Q: For `Cc1oc(-c2ccccc2F)nc1C(=O)N[C@@H](CC(=O)O)c1ccccc1F` [Example 35, (S)-3-(2-Fluoro-phenyl)-3-{[2-(2-fluoro-phenyl)-5-methyl-oxazole-4-carbonyl]-amino}-propionic acid], which IC50 is on record?
A: 5.14 µM

Q: `CCc1nc(C(=O)N[C@@H](CC(=O)O)c2ccc(C)cc2)nn1-c1ccccc1Cl` [Example 71, (S)-3-{[1-(2-Chloro-phenyl)-5-ethyl-1H-[1,2,4]triazole-3-carbonyl]-amino}-3-p-tolyl-propionic acid] was tested. Which IC50 did it give?
A: 0.492 µM

Q: Which IC50 does the source give for `O=C(O)C[C@@H](Cc1ccccc1)NC(=O)CCc1nc(-c2ccccc2F)no1` [Example 49, (R)-3-{3-[3-(2-Fluoro-phenyl)-[1,2,4]oxadiazol-5-yl]-propionylamino}-4-phenyl-butyric acid] here?
A: > 10 µM

Q: Which IC50 does the source give for `Cc1ccccc1[C@H](CC(=O)O)NC(=O)c1nn(Cc2ccccc2)c2ccccc12` [Example 72, (S)-3-[(1-Benzyl-1H-indazole-3-carbonyl)-amino]-3-o-tolyl-propionic acid] here?
A: 0.171 µM

Q: Which IC50 does the source give for `O=C(O)C[C@H](NC(=O)c1noc(-c2ccccc2F)n1)c1ccc(F)cc1` [Example 19, (S)-3-(4-Fluoro-phenyl)-3-{[5-(2-fluoro-phenyl)-[1,2,4]oxadiazole-3-carbonyl]-amino}-propionic acid] here?
A: 8.58 µM

Q: For `O=C(O)C[C@H](NC(=O)c1nc(-c2ccccc2)oc1C(F)(F)F)c1cccc(Cl)c1` [Example 96, (S)-3-(3-Chloro-phenyl)-3-[(2-phenyl-5-trifluoromethyl-oxazole-4-carbonyl)-amino]-propionic acid], which IC50 is on record?
A: 10.3 µM

Q: With `CCCS(=O)(=O)Nc1cn(C)nc1C(=O)N[C@@H](CC(=O)O)c1ccccc1C` [Example 64, (S)-3-{[1-Methyl-4-(propane-1-sulfonylamino)-1H-pyrazole-3-carbonyl]-amino}-3-o-tolyl-propionic acid] as the compound, how does the IC50 read?
A: > 10 µM

Q: How did the IC50 turn out when `CCCc1nc(C(=O)N[C@@H](CC(=O)O)c2ccccc2C)nn1-c1ccccc1Cl` [Example 89, (S)-3-{[1-(2-Chloro-phenyl)-5-propyl-1H-[1,2,4]triazole-3-carbonyl]-amino}-3-o-tolyl-propionic acid] was run?
A: 0.127 µM

Q: How did the IC50 turn out when `O=C(O)C[C@H](NC(=O)CCc1nc(-c2ccccc2F)no1)c1ccc(F)cc1` [Example 58, (S)-3-(4-Fluoro-phenyl)-3-{3-[3-(2-fluoro-phenyl)-[1,2,4]oxadiazol-5-yl]-propionylamino}-propionic acid] was run?
A: > 10 µM

Q: `O=C(O)C[C@H](NC(=O)CCc1nc(-c2ccccc2F)no1)c1ccccc1` [Example 31, (S)-3-{3-[3-(2-Fluoro-phenyl)-[1,2,4]oxadiazol-5-yl]-propionylamino}-3-phenyl-propionic acid] was tested. Which IC50 did it give?
A: > 10 µM

Q: With `O=C(O)C[C@H](NC(=O)CCc1nc(-c2ccccc2F)no1)c1cccc(Cl)c1Cl` [Example 112, (S)-3-(2,3-Dichloro-phenyl)-3-{3-[3-(2-fluoro-phenyl)-[1,2,4]oxadiazol-5-yl]-propionylamino}-propionic acid] as the compound, how does the IC50 read?
A: > 10 µM

Q: For `CC(C)c1oc(-c2ccccc2)nc1C(=O)NC(CC(=O)O)Cc1ccccc1` (stereo not shown) [Example 45, 3-[(5-Isopropyl-2-phenyl-oxazole-4-carbonyl)-amino]-4-phenyl-butyric acid], which IC50 is on record?
A: 8.88 µM

Q: `O=C(O)C[C@@H](Cc1ccccc1)NC(=O)c1noc(-c2cccc(F)c2F)n1` [Example 41, (R)-3-{[5-(2,3-Difluoro-phenyl)-[1,2,4]oxadiazole-3-carbonyl]-amino}-4-phenyl-butyric acid] was tested. Which IC50 did it give?
A: 13.4 µM

Q: `COc1cccc([C@H](CC(=O)O)NC(=O)c2nc(-c3ccccc3)oc2C)c1OC` [Example 66, (S)-3-(2,3-Dimethoxy-phenyl)-3-[(5-methyl-2-phenyl-oxazole-4-carbonyl)-amino]-propionic acid] was tested. Which IC50 did it give?
A: 12.5 µM

Q: `CC(C)c1oc(-c2ccccc2)nc1C(=O)N[C@@H](CC(=O)O)c1ccccc1Cl` [Example 67, (S)-3-(2-Chloro-phenyl)-3-[(5-isopropyl-2-phenyl-oxazole-4-carbonyl)-amino]-propionic acid] was tested. Which IC50 did it give?
A: 1.4 µM

Q: `Cc1oc(-c2ccccc2)nc1C(=O)N[C@@H](CC(=O)O)c1ccc(Cl)cc1Cl` [Example 75, (S)-3-(2,4-Dichloro-phenyl)-3-[(5-methyl-2-phenyl-oxazole-4-carbonyl)-amino]-propionic acid] was tested. Which IC50 did it give?
A: 1.75 µM

Q: Which IC50 does the source give for `COc1cccc([C@H](CC(=O)O)NC(=O)c2nc(-c3ccccc3)n(-c3ccccc3)n2)c1` [Example 102, (S)-3-[(1,5-Diphenyl-1H-[1,2,4]triazole-3-carbonyl)-amino]-3-(3-methoxy-phenyl)-propionic acid] here?
A: 0.44 µM

Q: How did the IC50 turn out when `O=C(O)C[C@@H](Cc1ccccc1)NC(=O)c1nc(-c2ccccc2F)no1` [Example 11, (R)-3-{[3-(2-Fluoro-phenyl)-[1,2,4]oxadiazole-5-carbonyl]-amino}-4-phenyl-butyric acid] was run?
A: 4.89 µM

From patent US9751858B2, “3-heteroaroylamino-propionic acid derivatives and their use as pharmaceuticals” (SANOFI, priority 2011, dated 2017)
